Experimental data from the supplement of paper PMC11061612.

Tests used:
Assay in all cases: Bliss excess, mean over the matrix (fraction); higher = more synergy
[1] = test system: A549 (Lung Adenocarcinoma)
In short: (§1)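 Cell lines in DMEM/F12 or RPMI with 10% FBS were plated in 1536-well plates, held 24 hours at 37°C, 5% CO2, then given two-drug dose matrices for 72 hours (DMSO typically 0.2%). Viability was read by CellTiter-Glo 2.0 luminescence and scaled as inhibition from 0 (vehicle wells) to 1 (blank wells). Combination Emax is the second-highest inhibition in the matrix; Bliss excess is observed combination effect minus expected EA + EB − EA·EB, EA and EB being single-agent effects.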

[2] = test system: SK-MES-1 (Squamous Cell Lung Carcinoma)
In short: as §1

[3] = test system: FU97 (Gastric Carcinoma)
In short: as §1

[4] = test system: CCK-81 (Colorectal Carcinoma)
In short: as §1

[5] = test system: BICR22 (Oral Cavity Carcinoma)
In short: as §1

[6] = test system: LN-405 (Glioblastoma)
In short: as §1

[7] = test system: NCI-H1666 (Lung Adenocarcinoma)
In short: as §1

[8] = test system: COLO-824 (Breast Carcinoma)
In short: as §1

[9] = test system: ONS-76 (Other Solid Carcinomas)
In short: as §1

[10] = test system: KARPAS-422 (B-Cell Non-Hodgkin's Lymphoma)
In short: as §1

[11] = test system: COR-L311 (Small Cell Lung Carcinoma)
In short: as §1

[12] = test system: PA-1 (Ovarian Carcinoma)
In short: as §1

[13] = test system: NCI-H64 (Small Cell Lung Carcinoma)
In short: as §1

[14] = test system: NCI-H1650 (Lung Adenocarcinoma)
In short: as §1

[15] = test system: Hs-445 (Non-Cancerous)
In short: as §1

[16] = test system: ECC10 (Gastric Carcinoma)
In short: as §1

[17] = test system: CAPAN-2 (Pancreatic Carcinoma)
In short: as §1

[18] = test system: A498 (Kidney Carcinoma)
In short: as §1

[19] = test system: A3-KAW (B-Cell Non-Hodgkin's Lymphoma)
In short: as §1

[20] = test system: JSC-1 (B-Cell Non-Hodgkin's Lymphoma)
In short: as §1

Compound	Bliss excess [1]	Bliss excess [2]	Bliss excess [3]	Bliss excess [4]	Bliss excess [5]	Bliss excess [6]	Bliss excess [7]	Bliss excess [8]	Bliss excess [9]	Bliss excess [10]	Bliss excess [11]	Bliss excess [12]	Bliss excess [13]	Bliss excess [14]	Bliss excess [15]	Bliss excess [16]	Bliss excess [17]	Bliss excess [18]	Bliss excess [19]	Bliss excess [20]
CN(CCO)CC[C@H](CSc1ccccc1)Nc1ccc(S(=O)(=O)NC(=O)c2ccc(N3CCC([C@@H](O)c4ccccc4-c4ccc(Cl)cc4)CC3)cc2)cc1S(=O)(=O)C(F)(F)F [AZD4320] + C[C@@H](Nc1cc(F)cc(F)c1)c1cc(C(=O)N(C)C)cc2c(=O)cc(N3CCOCC3)oc12 [AZD8186] (first compound max 1 µM, 7x7, partner max 3 µM)	-0.0964	0.031	0.0471	0.0755	-0.0108	-0.0504	0.0153	0.0422	0.0221	0.0234	0.0588	0.0411	-0.0372	0.0346	0.0667	0.0229	-0.0099	0.0903	0.0229	0.0639
CN(CCO)CC[C@H](CSc1ccccc1)Nc1ccc(S(=O)(=O)NC(=O)c2ccc(N3CCC([C@@H](O)c4ccccc4-c4ccc(Cl)cc4)CC3)cc2)cc1S(=O)(=O)C(F)(F)F [AZD4320] + Cc1cc2ncnn2cc1Nc1ncc2c(n1)n(C1CCOCC1)c(=O)n2C [AZD7648] (first compound max 1 µM, 7x7, partner max 10 µM)	-0.0263	-0.0632	-0.0375	-0.0091	-0.0054	0.0012	-0.0352	0.006	-0.0301	-0.0071	0.0219	0.0302	-0.0449	-0.0227	0.0079	0.025	-0.0217	-0.0393	0.0296	-0.0113
CN(CCO)CC[C@H](CSc1ccccc1)Nc1ccc(S(=O)(=O)NC(=O)c2ccc(N3CCC([C@@H](O)c4ccccc4-c4ccc(Cl)cc4)CC3)cc2)cc1S(=O)(=O)C(F)(F)F [AZD4320] + Cn1cnc2c(F)c(Nc3ccc(Br)cc3Cl)c(C(=O)NOCCO)cc21 [Selumetinib] (first compound max 1 µM, 7x7, partner max 3 µM)	0.0226	0.0282	-0.011	0.133	-0.0468	-0.061	0.0676	-0.0523	0.019	-0.0387	-0.0034	0.144	0.0427	0.0245	0.0606	0.027	0.0819	0.0329	0.0747	0.0044
COc1nnc2ccc(N3CCC(c4ccc(OCCN5CCN(C)C(=O)[C@H]5C)cc4)CC3)nn12 [AZD5153] + C=CCn1c(=O)c2cnc(Nc3ccc(N4CCN(C)CC4)cc3)nc2n1-c1cccc(C(C)(C)O)n1 [AZD1775] (first compound max 1 µM, partner max 1 µM)	-0.0902	0.0183	0.0072	-0.0558	-0.0972	-0.042	-0.0944	-0.0551	-0.0505	-0.108	-0.06	-0.043	-0.0114	-0.015	-0.192	-0.0116	-0.0202	0.0142	-0.0093	-0.123
COc1nnc2ccc(N3CCC(c4ccc(OCCN5CCN(C)C(=O)[C@H]5C)cc4)CC3)nn12 [AZD5153] + CC1(C)CCC(CN2CCN(c3ccc(C(=O)NS(=O)(=O)c4ccc(NCC5CCOCC5)c([N+](=O)[O-])c4)c(Oc4cnc5[nH]ccc5c4)c3)CC2)=C(c2ccc(Cl)cc2)C1 [Venetoclax] (first compound max 1 µM, 7x7, partner max 1 µM)	-0.0659	-0.0349	-0.0452	-0.054	-0.0613	-0.0861	-0.0603	-0.0176	-0.0428	-0.032	0.0389	-0.077	-0.0455	-0.0349	0.0178	0.0248	-0.0149	-0.0895	-0.0095	-0.0724
COc1nnc2ccc(N3CCC(c4ccc(OCCN5CCN(C)C(=O)[C@H]5C)cc4)CC3)nn12 [AZD5153] + CCN(CCO)CCCOc1ccc2c(Nc3cc(CC(=O)Nc4cccc(F)c4)[nH]n3)ncnc2c1 [AZD2811] (first compound max 1 µM, 7x7, partner max 1 µM)	-0.0407	-0.0546	-0.0048	-0.0361	-0.118	-0.0761	-0.0376	-0.0422	-0.0124	-0.0472	-0.0357	0.032	0.0609	-0.0868	-0.0783	-0.103	-0.0286	-0.0453	0.0269	0.0038
COc1nnc2ccc(N3CCC(c4ccc(OCCN5CCN(C)C(=O)[C@H]5C)cc4)CC3)nn12 [AZD5153] + C[C@@H]1COCCN1C2=NC(=NC(=C2)C3(CC3)[S@](=N)(=O)C)C4=C5C=CNC5=NC=C4 [AZD6738] (first compound max 1 µM, 7x7, partner max 10 µM)	-0.0292	0.0093	0.0043	0.0184	-0.116	-0.0235	-0.0271	0.0541	-0.0698	-0.0759	-0.0501	-0.0502	0.0357	0.0238	-0.0475	0.0654	0.0047	-0.0563	-0.006	-0.067
COc1nnc2ccc(N3CCC(c4ccc(OCCN5CCN(C)C(=O)[C@H]5C)cc4)CC3)nn12 [AZD5153] + Cc1c2c(nn1C)CSCc1cc(n(C)n1)CSc1cc(c3ccccc3c1)OCCCc1c(C(=O)O)n(C)c3c-2c(Cl)ccc13 [AZD5991] (first compound max 1 µM, 7x7, partner max 1 µM)	-0.0918	-0.0084	0.0934	-0.0485	-0.0013	-0.0084	-0.0538	-0.0584	-0.0081	-0.0432	-0.0225	0.0109	-0.0074	-0.0082	-0.0723	0.0743	-0.0078	-0.0226	-0.0289	-0.0542
COc1nnc2ccc(N3CCC(c4ccc(OCCN5CCN(C)C(=O)[C@H]5C)cc4)CC3)nn12 [AZD5153] + Cn1cnc2c(F)c(Nc3ccc(Br)cc3Cl)c(C(=O)NOCCO)cc21 [Selumetinib] (first compound max 1 µM, 7x7, partner max 10 µM)	-0.0703	-0.0219	-0.0254	0.0649	0.0497	-0.0171	-0.0631	0.007	-0.0127	-0.0311	-0.0334	0.0002	0.0021	-0.0155	-0.0232	0.0419	0.0202	0.0016	0.0182	-0.0165
Cc1c2c(nn1C)CSCc1cc(n(C)n1)CSc1cc(c3ccccc3c1)OCCCc1c(C(=O)O)n(C)c3c-2c(Cl)ccc13 [AZD5991] + C1CN(CCC1(C(=O)N[C@@H](CCO)C2=CC=C(C=C2)Cl)N)C3=NC=NC4=C3C=CN4 [Capivasertib] (first compound max 1 µM, 7x7, partner max 3 µM)	-0.0312	0.0568	-0.0174	0.0555	0.119	0.0158	0.0151	0.01	-0.0003	-0.132	0.0059	0.0437	-0.0261	0.012	-0.0545	0.0934	0.0085	-0.0091	0.0236	-0.0085
Cc1c2c(nn1C)CSCc1cc(n(C)n1)CSc1cc(c3ccccc3c1)OCCCc1c(C(=O)O)n(C)c3c-2c(Cl)ccc13 [AZD5991] + C=CCn1c(=O)c2cnc(Nc3ccc(N4CCN(C)CC4)cc3)nc2n1-c1cccc(C(C)(C)O)n1 [AZD1775] (first compound max 1 µM, partner max 1 µM)	-0.0488	-0.0183	0.0503	-0.0116	-0.0107	0.0077	0.0037	-0.0593	-0.0214	-0.0192	-0.0655	-0.0288	-0.0187	0.0047	0.0139	0.0696	0.0292	0.0231	0.0126	-0.0042
Cc1c2c(nn1C)CSCc1cc(n(C)n1)CSc1cc(c3ccccc3c1)OCCCc1c(C(=O)O)n(C)c3c-2c(Cl)ccc13 [AZD5991] + CC1(C)CCC(CN2CCN(c3ccc(C(=O)NS(=O)(=O)c4ccc(NCC5CCOCC5)c([N+](=O)[O-])c4)c(Oc4cnc5[nH]ccc5c4)c3)CC2)=C(c2ccc(Cl)cc2)C1 [Venetoclax] (first compound max 1 µM, 7x7, partner max 1 µM)	-0.0642	-0.0302	-0.0525	0.0362	0.0003	0.0082	-0.0478	0.11	-0.0214	0.205	0.157	0.0664	0.0308	-0.0246	0.0357	0.277	-0.0292	-0.108	0.0191	0.0155
